From patent publication US9382306B2, “Octapeptide compounds derived from somatostatin and the therapeutic use thereof” (IPSEN PHARMA S.A.S., priority 2008, dated 2016)
“And” between values parts separate entries of the source, which are not always exact repeats. Equal values may be shown once. Bridge positions count the residues as written; N and C are the ends. Square brackets hold non-standard residues; d marks the D form. Peptide text beside a SMILES is read from it. ξ: configuration not given here. dPhe(4-NO2) = N[C@H](Cc1ccc([N+](=O)[O-])cc1)C(=O)O; dPhe(3-Br) = N[C@H](Cc1cccc(Br)c1)C(=O)O; dPhe(4-Br) = N[C@H](Cc1ccc(Br)cc1)C(=O)O; dPhe(2-Br) = N[C@H](Cc1ccccc1Br)C(=O)O; dPhe(3-F) = N[C@H](Cc1cccc(F)c1)C(=O)O; 2Nal = N[C@@H](Cc1ccc2ccccc2c1)C(=O)O; d2Nal = N[C@H](Cc1ccc2ccccc2c1)C(=O)O; dPhe(2-F) = N[C@H](Cc1ccccc1F)C(=O)O; dThr(3ξ) = CC(O)[C@@H](N)C(=O)O; Thr(3ξ) = CC(O)[C@H](N)C(=O)O

Legend:
[1] = Self-assembly study: putting peptides in solution in water, macroscopic, ATR-FTIR, TEM and SAXS analysis; type: physicochemical; details: 3 to 15% by mass of peptide in water; form and diameter of the self-assembled structure, or soluble / insoluble
Excerpt: The procedure used comprises three stages: putting the peptides in solution and macroscopic analysis; spectroscopic and microscopic analyses of the structures formed and by small-angle X-ray scattering (SAXS) analyses.
The first stage of the characterization of the derivatives is the production of a range of concentrations from 3 to 15% by mass of peptide in water. Gelling of the solution indicates the presence of self-assembled structures which can be nanotubes but can also be fibres or other self-organised structures.
The object of this stage is to verify the presence of self-assembled structures, to characterize their self-assembly and to visualize them by microscopy.
Infrared spectroscopy makes it possible to obtain information on the method of stacking the peptides in the self-assemblies. The amide band spectrum, reflecting the absorption spectra of the carbonyl functions of the peptide backbone, gives information on the type of hydrogen bond in which these groups are involved (H bonds leading to the formation of the […], a helix or also a loop or random conformation) and consequently on the secondary and tertiary structure of the peptides in solution and self-assembled. The attenuated total reflection technique (ATR-FTIR) uses a crystal on which the solid or liquid sample is deposited. The infrared light is guided through this crystal at an angle which allows it to be reflected several times inside the crystal, which increases the sensitivity of the technique. Due to the performance of this device, it is then possible perform measurements on relatively dilute solutions. The beam penetrates a few microns into the sample deposited on the crystal, which means that only the molecules/structures which are deposited on the surface of the crystal are analyzed. Moreover, this technique is non-destructive.
The assembled structures are then visualized by transmission electron microscopy (TEM). This very powerful technique, allowing magnifications greater than 500,000 times, is one of the few techniques capable of visualizing structures on the nanometric scale. The sample is subjected to an electron beam. The visualization of the transmitted beam is produced either by a photoluminescent screen, or by a CCD camera. The sample in the microscope being under vacuum, it is samples dried after staining with uranyl salts in order to increase contrast which are observed.
The peptide in solution is firstly deposited on a copper grid covered with a film of carbon. After deposition of the materiel, the excess liquid is eliminated. In the same way, the solution of colorant, in our case uranyl acetate, is deposited on the grid, the excess is eliminated and the grid is dried in the open air. It can then be introduced into the microscope.
The samples, liquids or gels, are introduced into a capillary column and subjected to a monochromatic flow of X-rays. The intensity diffused is measured as a function of the scattering angle with respect to the incident angle.
The diffusion patterns thus obtained must be the subject of a correlation with a close theoretical model of the structures present in the sample. In the case where the peptides have self-assembled in the form of hollow nanotubes, the modelling of the experimental data with the theoretical diffusion produced by infinitely long hollow columns makes it possible to determine with precision the diameter of the columns and to estimate their wall thickness (Valery et al. in Biophysical journal, 2004, 86(4), 2484-2501 and Proc. Natl. Acad. Sci., 2003, 100(18) 10258-10262). For polydisperse, nanotubular, fibrilar, micellar or lamellar self-assemblies, it is the correlation of the spectroscopic, microscopic and XR scattering data which makes it possible to estimate a size range for the objects observed.

[2] = biological target: T1, somatostatin receptors sub-type 2 (Homo sapiens, UniProt P30874); assay: Affinity for somatostatin receptors: inhibition of [125I-Tyr11]SRIF-14 binding to membranes of transfected CHO-K1 cells; details: competitive inhibition of [125I-Tyr11]SRIF-14 binding, 37° C.
T1 construct: expressed in transfected cells; membrane preparations
T1 sequence (P30874 whole entry): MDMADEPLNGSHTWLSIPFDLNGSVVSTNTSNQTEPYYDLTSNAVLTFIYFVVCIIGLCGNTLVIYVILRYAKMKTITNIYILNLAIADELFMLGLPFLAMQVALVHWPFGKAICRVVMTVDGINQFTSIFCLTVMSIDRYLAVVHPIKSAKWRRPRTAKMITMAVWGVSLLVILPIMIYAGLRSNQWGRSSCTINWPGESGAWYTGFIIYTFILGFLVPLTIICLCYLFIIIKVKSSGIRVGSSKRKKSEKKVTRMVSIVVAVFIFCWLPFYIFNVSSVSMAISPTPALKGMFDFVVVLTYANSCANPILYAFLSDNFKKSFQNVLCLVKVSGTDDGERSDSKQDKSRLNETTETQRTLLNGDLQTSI
Description: (§1) The affinity of the compounds of the invention for the somatostatin receptors is determined by measurement of the inhibition of the bond of [125I-Tyr11]SRIF-14 to membrane preparations of transfected CHO-K1 cells.
(§2) The CHO-K1 cells expressing in a stable fashion each of the sub-types of somatostatin receptors are collected with 0.5 mM of EDTA and centrifuged at 500 g for 5 minutes at 4° C. The pellet is re-suspended in phosphate buffer (PBS) and centrifuged at 500 g for 5 minutes at 4° C. The pellet is re-suspended in Tris 50 mM buffer at pH 7.4 and centrifuged at 500 g for 5 minutes at 4° C. The cells are lyzed by sonication and centrifuged at 39,000 g for 10 minutes. The pellet is re-suspended in Tris 50 mM buffer at pH 7.4, an aliquot is removed for assaying the proteins and the remainder is centrifuged at 50,000 g for 10 minutes. The membranes obtained in this last pellet are stored at −80° C.
(§3) Measurement of the competitive inhibition of the bond of [125I-Tyr11]SRIF-14 (Perkin Elmer) on each of the sub-types of somatostatin receptors is carried out in duplicate in 96-well polypropylene plates. The cell membranes (5 to 20 µg of proteins/well) are incubated with [125I-Tyr11]SRIF-14 (0.05 to 0.1 nM) for 50 to 90 minutes at 37° C. (conditions dependent on the sub-type of receptor) in a HEPES buffer medium 50 mM pH 7.4, comprising 0.2% bovine serum albumin (BSA), MgCl2 5 mM, Trasylol 200 KIU/mL, Bacitracin 0.02 mg/mL, phenylmethylsulphonyl fluoride 0.02 mg/mL.
(§4) The bound [125I-Tyr11]SRIF-14 is separated from the free [125I-Tyr11]SRIF-14 by filtration through GF/C glass fibre plates (Unifilter, Perkin Elmer) pre-impregnated with 0.1% polyethylenimine (P.E.I.), using a Filtermate 96 (Perkin Elmer). The filters are washed with Tris-HCl buffer 50 mM, pH 7.4 at 4° C. and the radioactivity present is determined using a counter (TopCount, Perkin Elmer).
(§5) The data are analyzed by computer-assisted non-linear regression using XLfit 4.2 (IDBS) software.

[3] = biological target: T2, somatostatin receptors sub-type 5 (Homo sapiens, UniProt P35346); assay: as above; details: competitive inhibition of [125I-Tyr11]SRIF-14 binding, 37° C.
T2 construct: expressed in transfected cells; membrane preparations
T2 sequence (P35346 whole entry): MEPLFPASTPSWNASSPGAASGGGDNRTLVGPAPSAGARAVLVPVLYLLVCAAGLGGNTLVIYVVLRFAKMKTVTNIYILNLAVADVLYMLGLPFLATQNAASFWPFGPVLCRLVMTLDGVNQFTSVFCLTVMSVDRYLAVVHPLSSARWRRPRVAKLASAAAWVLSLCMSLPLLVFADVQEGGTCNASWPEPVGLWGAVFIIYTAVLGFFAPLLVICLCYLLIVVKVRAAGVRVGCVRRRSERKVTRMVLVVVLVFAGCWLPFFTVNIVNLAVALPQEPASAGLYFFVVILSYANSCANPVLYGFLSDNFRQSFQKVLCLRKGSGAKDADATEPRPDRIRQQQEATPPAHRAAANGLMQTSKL
Description: as §1, §2, §3, §4, §5

SMILES	Assembly [1]	Ki [2] [nM]	Ki [3] [nM]
COCCOCCOc1ccc(C[C@H]2NC(=O)[C@H](Cc3ccc(O)cc3)NC(=O)[C@@H](NC(=O)[C@H](N)Cc3ccc4ccccc4c3)CSSC[C@@H](C(=O)N[C@H](C(N)=O)[C@@H](C)O)NC(=O)[C@H](C(C)C)NC(=O)[C@H](CCCCN)NC2=O)cc1 [Example 22, H-D-2-Nal^1-cyclo(Cys^2-Tyr^3-p-2-(2-methoxyethoxy)ethoxy)-D-Phe^4-Lys^5-Val^6-Cys^7)-Thr^8-NH2].2 CH3COOH]	17.4 nm monodisperse nanotube	–	–
CC(C)[C@@H]1NC(=O)[C@H](CCCCN)NC(=O)[C@@H](CC2CCCCC2)NC(=O)[C@H](Cc2ccc(O)cc2)NC(=O)[C@@H](NC(=O)[C@H](N)Cc2ccc3ccccc3c2)CSSC[C@@H](C(=O)N[C@H](C(N)=O)[C@@H](C)O)NC1=O [Example 24, H-D-2-Nal^1-cyclo(Cys^2-Tyr^3-cyclohexyl-D-Ala^4-Lys^5-Val^6-Cys^7)-Thr^8-NH2.2 CH3COOH]	fibres	≤ 5	≤ 100
CC(C)[C@@H]1NC(=O)[C@H](CCCCN)NC(=O)[C@@H](Cc2ccc(Br)cc2)NC(=O)[C@H](Cc2ccc(O)cc2)NC(=O)[C@@H](NC(=O)[C@H](N)Cc2ccc3ccccc3c2)CSSC[C@@H](C(=O)N[C@H](C(N)=O)C(C)O)NC1=O (stereo partly drawn) [Example 12, H-D-2-Nal^1-cyclo(Cys^2-Tyr^3-p-Br-D-Phe^4-Lys^5-Val^6-Cys^7)-Thr^8-NH2.2 CH3COOH] (H-[d2Nal]CY[dPhe(4-Br)]KVC[Thr(3ξ)]-NH2; disulfide 2-7)	monodisperse peptide nanotubes and 17 nm monodisperse nanotube	≤ 5	≤ 100
CC(C)[C@@H]1NC(=O)[C@H](CCCCN)NC(=O)[C@@H](Cc2csc3ccccc23)NC(=O)[C@H](Cc2ccc(O)cc2)NC(=O)[C@@H](NC(=O)[C@H](N)Cc2ccc3ccccc3c2)CSSC[C@@H](C(=O)N[C@H](C(N)=O)C(C)O)NC1=O (stereo partly drawn) [Example 1, H-D-2-Nal^1-cyclo(Cys^2-Tyr^3-β-(3-benzothienyl)-D-Ala^4-Lys^5-Val^6-Cys^7)-Thr^8-NH2.2 CH3COOH]	monodisperse peptide nanotubes and 20 nm monodisperse nanotube	≤ 5	≤ 100
CC(C)[C@@H]1NC(=O)[C@H](CCCCN)NC(=O)[C@@H](Cc2ccc([N+](=O)[O-])cc2)NC(=O)[C@H](Cc2ccc(O)cc2)NC(=O)[C@@H](NC(=O)[C@H](N)Cc2ccc3ccccc3c2)CSSC[C@@H](C(=O)N[C@H](C(N)=O)C(C)O)NC1=O (stereo partly drawn) [Example 20, H-D-2-Nal^1-cyclo(Cys^2-Tyr^3-p-nitro-D-Phe^4-Lys^5-Val^6-Cys^7)-Thr^8-NH2.2 CH3COOH] (H-[d2Nal]CY[dPhe(4-NO2)]KVC[Thr(3ξ)]-NH2; disulfide 2-7)	monodisperse peptide nanotubes and 17.6 nm monodisperse nanotube	≤ 5	≤ 1000
CC(C)[C@@H]1NC(=O)[C@H](CCCCN)NC(=O)[C@@H](Cc2cccc(Br)c2)NC(=O)[C@H](Cc2ccc(O)cc2)NC(=O)[C@@H](NC(=O)[C@H](N)Cc2ccc3ccccc3c2)CSSC[C@@H](C(=O)N[C@H](C(N)=O)C(C)O)NC1=O (stereo partly drawn) [Example 18, H-D-2-Nal^1-cyclo(Cys^2-Tyr^3-m-Br-D-Phe^4-Lys^5-Val^6-Cys^7)-Thr^8-NH2.2 CH3COOH] (H-[d2Nal]CY[dPhe(3-Br)]KVC[Thr(3ξ)]-NH2; disulfide 2-7)	18.4-18.8 nm monodisperse	≤ 5	≤ 100
CC(C)[C@@H]1NC(=O)[C@H](CCCCN)NC(=O)[C@@H](Cc2cccc(F)c2)NC(=O)[C@H](Cc2ccc(O)cc2)NC(=O)[C@@H](NC(=O)[C@H](N)Cc2ccc3ccccc3c2)CSSC[C@@H](C(=O)N[C@H](C(N)=O)C(C)O)NC1=O (stereo partly drawn) [Example 15, H-D-2-Nal^1-cyclo(Cys^2-Tyr^3-m-F-D-Phe^4-Lys^5-Val^6-Cys^7)-Thr^8-NH2.2 CH3COOH] (H-[d2Nal]CY[dPhe(3-F)]KVC[Thr(3ξ)]-NH2; disulfide 2-7)	monodisperse peptide nanotubes and 15.6 nm monodisperse nanotube	≤ 5	≤ 100
CC(C)[C@@H]1NC(=O)[C@H](CCCCN)NC(=O)[C@@H](Cc2ccccc2F)NC(=O)[C@H](Cc2ccc(O)cc2)NC(=O)[C@@H](NC(=O)[C@H](N)Cc2ccc3ccccc3c2)CSSC[C@@H](C(=O)N[C@H](C(N)=O)C(C)O)NC1=O (stereo partly drawn) [Example 16, H-D-2-Nal^1-cyclo(Cys^2-Tyr^3-o-F-D-Phe^4-Lys^5-Val^6-Cys^7)-Thr^8-NH2.2 CH3COOH] (H-[d2Nal]CY[dPhe(2-F)]KVC[Thr(3ξ)]-NH2; disulfide 2-7)	monodisperse peptide nanotubes and 17 nm monodisperse nanotube	≤ 5	≤ 1000
CC(C)[C@@H]1NC(=O)[C@H](CCCCN)NC(=O)[C@@H](Cc2ccc(-c3ccccc3)cc2)NC(=O)[C@H](Cc2ccc(O)cc2)NC(=O)[C@@H](NC(=O)[C@H](N)Cc2ccc3ccccc3c2)CSSC[C@@H](C(=O)N[C@H](C(N)=O)C(C)O)NC1=O (stereo partly drawn) [Example 21, H-D-2-Nal^1-cyclo(Cys^2-Tyr^3-p-Ph-D-Phe^4-Lys^5-Val^6-Cys^7)-Thr^8-NH2.2 CH3COOH]	insoluble	≤ 50	≤ 100
CC(C)[C@@H]1NC(=O)[C@H](CCCCN)NC(=O)[C@@H](Cc2ccccc2Br)NC(=O)[C@H](Cc2ccc(O)cc2)NC(=O)[C@@H](NC(=O)[C@H](N)Cc2ccc3ccccc3c2)CSSC[C@@H](C(=O)N[C@H](C(N)=O)C(C)O)NC1=O (stereo partly drawn) [Example 19, H-D-2-Nal^1-cyclo(Cys^2-Tyr^3-o-Br-D-Phe^4-Lys^5-Val^6-Cys^7)-Thr^8-NH2.2 CH3COOH] (H-[d2Nal]CY[dPhe(2-Br)]KVC[Thr(3ξ)]-NH2; disulfide 2-7)	–	≤ 5	≤ 100
CC(C)[C@H]1NC(=O)[C@@H](CCCCN)NC(=O)[C@H](Cc2c[nH]c3ccccc23)NC(=O)[C@@H](Cc2ccc(O)cc2)NC(=O)[C@H](NC(=O)[C@@H](N)Cc2ccc3ccccc3c2)CSSC[C@H](C(=O)N[C@@H](C(N)=O)C(C)O)NC1=O (stereo partly drawn) [Example 23, H-2-Nal^1-cyclo(D-Cys^2-D-Tyr^3-Trp^4-D-Lys^5-D-Val^6-D-Cys^7)-D-Thr^8-NH2.2 CH3COOH] (H-[2Nal][dC][dY]W[dK][dV][dC][dThr(3ξ)]-NH2; disulfide 2-7)	24.4 nm monodisperse nanotube	–	–
